# According to article PMC6450621, “Changes of drug pharmacokinetics mediated by downregulation of kidney organic cation transporters Mate1 and Oct2 in a rat model of hyperuricemia” (PLoS ONE, 2019):
# Several values for one entry are separate records, joined by “and”; a condition that tells them apart may be missing. Identical values can stand only once.
# Experiments:
# in vivo = details: rat, plasma, intravenous
# [1] = metformin; used for control and hyperuricemic rats; cited from earlier work
# [2] = Pharmacokinetic study after intravenous administration in control and hyperuricemic rats (plasma, urine, kidney); details: for Kp, kidney: 4 h after iv metformin 30 mg/kg; for CL renal / concentration at 0 min / concentration at 0.5 min / concentration at 2 min / concentration at 5 min / concentration at 30 min / concentration at 60 min / AUC(0-t) / AUC(0-inf) / dose excreted at 10 min / dose excreted at 20 min / dose excreted at 30 min / dose excreted at 60 min / dose excreted at 120 min / dose excreted at 240 min / dose excreted: rat; for CL renal: plasma and urine, CLR; for CL renal / AUC(0-t) / AUC(0-inf): iv; for concentration at 0 min / concentration at 0.5 min / concentration at 2 min / concentration at 5 min / concentration at 30 min / concentration at 60 min / AUC(0-t) / AUC(0-inf): plasma; for concentration at 0 min / concentration at 0.5 min / concentration at 2 min / concentration at 5 min / concentration at 30 min / concentration at 60 min / dose excreted at 10 min / dose excreted at 20 min / dose excreted at 30 min / dose excreted at 60 min / dose excreted at 120 min / dose excreted at 240 min / dose excreted: intravenous; for concentration at 0 min / concentration at 0.5 min / concentration at 2 min / concentration at 5 min / concentration at 30 min / concentration at 60 min: Plasma concentration; for AUC(0-inf): AUCinf; for dose excreted at 10 min / dose excreted at 20 min / dose excreted at 30 min / dose excreted at 60 min / dose excreted at 120 min / dose excreted at 240 min / dose excreted: urine; for dose excreted at 10 min / dose excreted at 20 min / dose excreted at 30 min / dose excreted at 60 min / dose excreted at 120 min / dose excreted at 240 min: Urinary recovery (cumulative); for dose excreted: Urinary Recovery;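 as to all read-outs here: Pentobarbital-anesthetized rats with cannulated bladder, jugular plasma, timed urine and saline kidney homogenate assayed by HPLC or LC-MS/MS, Kp as kidney over plasma level at 4 h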
# [3] = control rats, 0 min after iv metformin 30 mg/kg or cephalexin 10 mg/kg, individual rat
# [4] = control rats, 0.5 min after iv metformin 30 mg/kg or cephalexin 10 mg/kg (creatinine endogenous), individual rat
# [5] = control rats, 2 min after iv metformin 30 mg/kg or cephalexin 10 mg/kg, individual rat
# [6] = control rats, 5 min after iv metformin 30 mg/kg or cephalexin 10 mg/kg, individual rat
# [7] = control rats, 30 min after iv metformin 30 mg/kg or cephalexin 10 mg/kg (creatinine endogenous), individual rat
# [8] = control rats, 60 min after iv metformin 30 mg/kg or cephalexin 10 mg/kg (creatinine endogenous), individual rat
# [9] = control rats, iv metformin 30 mg/kg, individual rat
# [10] = hyperuricemic rats, 0 min after iv metformin 30 mg/kg or cephalexin 10 mg/kg, individual rat
# [11] = hyperuricemic rats, 0.5 min after iv metformin 30 mg/kg or cephalexin 10 mg/kg (creatinine endogenous), individual rat
# [12] = hyperuricemic rats, 2 min after iv metformin 30 mg/kg or cephalexin 10 mg/kg, individual rat
# [13] = hyperuricemic rats, 30 min after iv metformin 30 mg/kg or cephalexin 10 mg/kg (creatinine endogenous), individual rat
# [14] = hyperuricemic rats, 60 min after iv metformin 30 mg/kg or cephalexin 10 mg/kg (creatinine endogenous), individual rat
# [15] = hyperuricemic rats, iv metformin 30 mg/kg, individual rat
# [16] = 30 mg/kg, control rats, iv metformin 30 mg/kg, individual rat
# [17] = 30 mg/kg, hyperuricemic rats, iv metformin 30 mg/kg, individual rat
# [18] = control rats, iv metformin 30 mg/kg or cephalexin 10 mg/kg, mean n=3
# [19] = hyperuricemic rats, iv metformin 30 mg/kg or cephalexin 10 mg/kg, mean n=3
compound,measurement,setting,value
"CN(C)C(=N)N=C(N)N [Metformin, metformin]",concentration at 15 min,in vivo,67.3 µM
same,concentration at 120 min,in vivo,3.94 µM
same,fu,[1],0.85 [27]
same,Plasma concentration,[2]; [3],750 µM and 1198 µM
same,Plasma concentration,[2]; [4],571 µM and 817 µM
same,Plasma concentration,[2]; [5],293 µM and 304 µM
same,Plasma concentration,[2]; [6],154 µM and 164 µM
same,Urinary recovery (cumulative),"[2]; control rats, 20 min after iv metformin 30 mg/kg, individual rat",26.0 % of dose and 21.2 % of dose and 46.7 % of dose
same,Plasma concentration,[2]; [7],33.2 µM and 34.5 µM
same,Urinary recovery (cumulative),"[2]; control rats, 30 min after iv metformin 30 mg/kg, individual rat",43.9 % of dose and 27.9 % of dose and 51.8 % of dose
same,Plasma concentration,[2]; [8],13.0 µM and 12.8 µM
same,Urinary recovery (cumulative),"[2]; control rats, 60 min after iv metformin 30 mg/kg, individual rat",44.6 % of dose and 64.4 % of dose
same,Urinary recovery (cumulative),"[2]; control rats, 120 min after iv metformin 30 mg/kg, individual rat",63.3 % of dose and 72.5 % of dose
same,Urinary recovery (cumulative),"[2]; control rats, 240 min after iv metformin 30 mg/kg, individual rat",72.0 % of dose and 76.4 % of dose
same,"Kp, kidney","[2]; control rats, individual rat",2.8 and 35.8 and 11.4
same,AUC0-4,[2]; [9],5208 µM·min and 5490 µM·min
same,AUCinf,[2]; [9],5393 µM·min and 5550 µM·min
same,CLR,[2]; [9],23.6 mL/min/kg and 23.7 mL/min/kg
same,Plasma concentration,[2]; [10],796 µM and 923 µM
same,Plasma concentration,[2]; [11],780 µM and 862 µM
same,Plasma concentration,[2]; [12],336 µM and 407 µM
same,Plasma concentration,"[2]; hyperuricemic rats, 5 min after iv metformin 30 mg/kg or cephalexin 10 mg/kg, individual rat",86 µM and 154 µM and 193 µM
same,Urinary recovery (cumulative),"[2]; hyperuricemic rats, 10 min after iv metformin 30 mg/kg, individual rat",16.7 % of dose and 11.6 % of dose
same,Urinary recovery (cumulative),"[2]; hyperuricemic rats, 20 min after iv metformin 30 mg/kg, individual rat",26.1 % of dose and 20.0 % of dose
same,Plasma concentration,[2]; [13],54.0 µM and 44.1 µM
same,Urinary recovery (cumulative),"[2]; hyperuricemic rats, 30 min after iv metformin 30 mg/kg, individual rat",31.6 % of dose and 27.5 % of dose
same,Plasma concentration,[2]; [14],26.4 µM and 27.5 µM
same,Urinary recovery (cumulative),"[2]; hyperuricemic rats, 60 min after iv metformin 30 mg/kg, individual rat",41.1 % of dose and 37.0 % of dose
same,Urinary recovery (cumulative),"[2]; hyperuricemic rats, 120 min after iv metformin 30 mg/kg, individual rat",49.6 % of dose and 47.8 % of dose
same,Urinary recovery (cumulative),"[2]; hyperuricemic rats, 240 min after iv metformin 30 mg/kg, individual rat",63.2 % of dose and 59.1 % of dose
same,"Kp, kidney","[2]; hyperuricemic rats, individual rat",94.7 and 122.2 and 54.1
same,AUC0-4,[2]; [15],7033 µM·min and 4854 µM·min
same,AUCinf,[2]; [15],7159 µM·min and 4997 µM·min
same,CLR,[2]; [15],14.3 mL/min/kg and 23.7 mL/min/kg
same,(CLR/fu)/CLInulin Fold Change,[2]; hyperuricemic vs control rats,1.00
same,AUC0-4 Fold Change,[2]; hyperuricemic vs control rats,1.10
same,AUCinf Fold Change,[2]; hyperuricemic vs control rats,1.10
same,CLR Fold Change,[2]; hyperuricemic vs control rats,0.80
same,"Kp, kidney Fold Change",[2]; hyperuricemic vs control rats,5.44
same,Urinary Recovery Fold Change,[2]; hyperuricemic vs control rats,0.85
same,CL renal,[2]; [16],21.7 mL/min/kg
same,CL renal,[2]; [17],16.8 mL/min/kg
same,CL renal,"[2]; control rats, iv metformin 30 mg/kg or cephalexin 10 mg/kg, creatinine endogenous, mean n=3",23 mL/min/kg
same,CL renal,"[2]; hyperuricemic rats, iv metformin 30 mg/kg or cephalexin 10 mg/kg, creatinine endogenous, mean n=3",18.3 mL/min/kg
same,concentration at 0 min,[2]; [3],1270 µM
same,concentration at 0 min,"[2]; control rats, 0 min after iv metformin 30 mg/kg or cephalexin 10 mg/kg, mean n=3",1070 µM
same,concentration at 0.5 min,[2]; [4],871 µM
same,concentration at 0.5 min,"[2]; control rats, 0.5 min after iv metformin 30 mg/kg or cephalexin 10 mg/kg (creatinine endogenous), mean n=3",753 µM
same,concentration at 2 min,[2]; [5],385 µM
same,concentration at 2 min,"[2]; control rats, 2 min after iv metformin 30 mg/kg or cephalexin 10 mg/kg, mean n=3",328 µM
same,concentration at 5 min,[2]; [6],159 µM
same,concentration at 5 min,"[2]; control rats, 5 min after iv metformin 30 mg/kg or cephalexin 10 mg/kg, mean n=3",159 µM
same,concentration at 30 min,[2]; [7],37 µM
same,concentration at 30 min,"[2]; control rats, 30 min after iv metformin 30 mg/kg or cephalexin 10 mg/kg (creatinine endogenous), mean n=3",34.9 µM
same,concentration at 60 min,[2]; [8],14.4 µM
same,concentration at 60 min,"[2]; control rats, 60 min after iv metformin 30 mg/kg or cephalexin 10 mg/kg (creatinine endogenous), mean n=3",13.4 µM
same,concentration at 0 min,[2]; [10],676 µM
same,concentration at 0 min,"[2]; hyperuricemic rats, 0 min after iv metformin 30 mg/kg or cephalexin 10 mg/kg, mean n=3",798 µM
same,concentration at 0.5 min,[2]; [11],578 µM
same,concentration at 0.5 min,"[2]; hyperuricemic rats, 0.5 min after iv metformin 30 mg/kg or cephalexin 10 mg/kg (creatinine endogenous), mean n=3",740 µM
same,concentration at 2 min,[2]; [12],267 µM
same,concentration at 2 min,"[2]; hyperuricemic rats, 2 min after iv metformin 30 mg/kg or cephalexin 10 mg/kg, mean n=3",337 µM
same,concentration at 5 min,"[2]; hyperuricemic rats, 5 min after iv metformin 30 mg/kg or cephalexin 10 mg/kg, mean n=3",144 µM
same,concentration at 30 min,[2]; [13],30 µM
same,concentration at 30 min,"[2]; hyperuricemic rats, 30 min after iv metformin 30 mg/kg or cephalexin 10 mg/kg (creatinine endogenous), mean n=3",42.7 µM
same,concentration at 60 min,[2]; [14],20.6 µM
same,concentration at 60 min,"[2]; hyperuricemic rats, 60 min after iv metformin 30 mg/kg or cephalexin 10 mg/kg (creatinine endogenous), mean n=3",24.9 µM
same,AUC(0-t),"[2]; 30 mg/kg, AUC0-4, control rats, iv metformin 30 mg/kg, individual rat",98.2 µM·h
same,AUC(0-t),"[2]; 30 mg/kg, AUC0-4, hyperuricemic rats, iv metformin 30 mg/kg, individual rat",107 µM·h
same,AUC(0-inf),[2]; [16],99.5 µM·h
same,AUC(0-inf),[2]; [17],109 µM·h
same,AUC(0-t),"[2]; AUC0-4, control rats, iv metformin 30 mg/kg or cephalexin 10 mg/kg, creatinine endogenous, mean n=3",92.2 µM·h
same,AUC(0-t),"[2]; AUC0-4, hyperuricemic rats, iv metformin 30 mg/kg or cephalexin 10 mg/kg, creatinine endogenous, mean n=3",102 µM·h
same,AUC(0-inf),[2]; [18],94 µM·h
same,AUC(0-inf),[2]; [19],104 µM·h
same,dose excreted at 10 min,"[2]; 30 mg/kg, control rats, 10 min after iv metformin 30 mg/kg, mean n=3",17.8%
same,dose excreted at 20 min,"[2]; 30 mg/kg, control rats, 20 min after iv metformin 30 mg/kg, mean n=3",31.3%
same,dose excreted at 30 min,"[2]; 30 mg/kg, control rats, 30 min after iv metformin 30 mg/kg, mean n=3",41.2%
same,dose excreted at 60 min,"[2]; 30 mg/kg, control rats, 60 min after iv metformin 30 mg/kg, individual rat",57.8%
same,dose excreted at 60 min,"[2]; 30 mg/kg, control rats, 60 min after iv metformin 30 mg/kg, mean n=3",55.6%
same,dose excreted at 120 min,"[2]; 30 mg/kg, control rats, 120 min after iv metformin 30 mg/kg, individual rat",61.5%
same,dose excreted at 120 min,"[2]; 30 mg/kg, control rats, 120 min after iv metformin 30 mg/kg, mean n=3",65.7%
same,dose excreted at 240 min,"[2]; 30 mg/kg, control rats, 240 min after iv metformin 30 mg/kg, individual rat",75.1%
same,dose excreted at 10 min,"[2]; 30 mg/kg, hyperuricemic rats, 10 min after iv metformin 30 mg/kg, individual rat",15.5%
same,dose excreted at 10 min,"[2]; 30 mg/kg, hyperuricemic rats, 10 min after iv metformin 30 mg/kg, mean n=3",14.6%
same,dose excreted at 20 min,"[2]; 30 mg/kg, hyperuricemic rats, 20 min after iv metformin 30 mg/kg, individual rat",26.9%
same,dose excreted at 20 min,"[2]; 30 mg/kg, hyperuricemic rats, 20 min after iv metformin 30 mg/kg, mean n=3",24.3%
same,dose excreted at 30 min,"[2]; 30 mg/kg, hyperuricemic rats, 30 min after iv metformin 30 mg/kg, individual rat",35.7%
same,dose excreted at 30 min,"[2]; 30 mg/kg, hyperuricemic rats, 30 min after iv metformin 30 mg/kg, mean n=3",31.6%
same,dose excreted at 60 min,"[2]; 30 mg/kg, hyperuricemic rats, 60 min after iv metformin 30 mg/kg, individual rat",46%
same,dose excreted at 60 min,"[2]; 30 mg/kg, hyperuricemic rats, 60 min after iv metformin 30 mg/kg, mean n=3",41.4%
same,dose excreted at 120 min,"[2]; 30 mg/kg, hyperuricemic rats, 120 min after iv metformin 30 mg/kg, individual rat",56.1%
same,dose excreted at 120 min,"[2]; 30 mg/kg, hyperuricemic rats, 120 min after iv metformin 30 mg/kg, mean n=3",51.1%
same,dose excreted at 240 min,"[2]; 30 mg/kg, hyperuricemic rats, 240 min after iv metformin 30 mg/kg, individual rat",67.5%
same,dose excreted at 240 min,"[2]; 30 mg/kg, hyperuricemic rats, 240 min after iv metformin 30 mg/kg, mean n=3",63.3%
same,dose excreted,[2]; [18],74.5%
same,dose excreted,[2]; [19],63.3%
